# According to article PMC6753678, “Fueling Open Innovation for Malaria Transmission-Blocking Drugs: Hundreds of Molecules Targeting Early Parasite Mosquito Stages” (Frontiers in Microbiology, 2019):
# Read-outs that look alike come from different tables or passages of the source.
# Tests used:
# [1] = tested on: 3D7-strain P. falciparum asexual parasites; test: P. falciparum asexual growth inhibition assay (Pf GIA); assay type: cell-based, Plasmodium falciparum; conditions: dose response confirmation; read-out: Pf asexual growth inhibition assays IC50
# Protocol: The asexual activity of active compounds was tested in dose response with parasite lactate dehydrogenase (LDH) activity used as a readout of parasite viability as described in [Gamo et al. (2010)]. Briefly, 3D7-strain P. falciparum asexual parasites were diluted to 0.25% parasitemia, 2% hematocrit in culture medium composed of RPMI medium with 25 mM HEPES, 2% D-sucrose, 0.3% L-glutamine, 150 μM hypoxanthine plus 5% albumax. 25 μl of parasite inoculum was then dispensed into each well of a 384 well plate containing test compounds and positive (50 μM chloroquine) and negative (DMSO) controls. Plates were incubated for 72 h at 37°C in a 5% CO2, 5%O2, 90% N2 environment before being frozen at −70°C. Plates were then thawed and 70 μl of reaction mix (143 mM sodium L-lactate, 143 mM 3-acetyl pyridine adenine dinucleotide, […] Nitro Blue tetrazolium chloride, […] diaphorase (2.83 U/ml), 0.7% Tween 20, 100 mM Tris–HCl pH 8.0) was added to each well using a Multidrop Combi automated dispenser. Plates were shaken to mix and then absorbance at 650 nm was measured after 10 min incubation at room temperature. Percent inhibition of asexual growth was then calculated with respect to positive and negative controls. Data presented is the mean of three independent biological replicates.
# [2] = tested on: P. berghei ookinete development; conditions: for Is compound selective in assay? Pb ODA active?: 1: YES, 0: NO; for % inhibition, Replicate A / % inhibition, Replicate B: primary screen at 1 μM
# HepG2 cells = test: HepG2 cytotoxicity assay; conditions: for IC50: read-out: HepG2 cytotoxicity assay IC50, dose response confirmation; for Unified cytotox: unified HepG2 value across the three screens
# Protocol: Briefly, HepG2 cells were seeded onto compound-treated 384 well plates at a density of 2,500 cells per well in Minimal Essential Medium (MEM) plus 10% fetal bovine serum and 1% non-essential amino acids solution (NEAA). Cells were incubated with test compounds or 50 μM doxorubicin (positive) and DSMO (negative) controls at 37°C for 48 h in a humidified 5% CO2 atmosphere. […] Cell viability was then measured in a fluorescent plate reader and percent inhibition calculated with respect to positive and negative controls.
# [3] = read-out: Pb ODA IC50, this manuscript
# [4] = read-out: Pb Ookinete development assay IC50, dose response confirmation
Structure (SMILES),"% inhibition, Replicate A [2] [%]","% inhibition, Replicate B [2] [%]",also measured
O=C(Nc1ccccc1)Nc1ccc(-n2ccc(C(F)(F)F)n2)cc1 [TCMDC-123480],42.19,52.26,"IC50 [1]: 419 nM; Is compound selective in assay? Pb ODA active? [2]: 1 (1: YES); IC50 [2, 3]: 1900 nM; IC50 [2, 4]: 1900 nM; IC50 (HepG2 cells): 100000 nM; Unified cytotox (HepG2 cells): 100.00 µM"
FC(F)(F)c1ccc(Nc2nnnc3ccccc23)cc1 [TCMDC-125603],80.24,96.04,"IC50 [1]: 9 nM; IC50 [2, 4]: 1260 nM"
NS(=O)(=O)c1cncc(-c2ccc3nccc(-c4cn[nH]c4)c3n2)c1 [TCMDC-134293],59.71,54.48,"IC50 [1]: 283 nM; IC50 [2, 4]: 2160 nM"
Cc1nc(C)c(-c2ccc(C(=O)c3ccccc3)cc2)c(O)c1Br [TCMDC-137419],112.31,126.66,
Cc1nc(C)c(-c2ccc(Oc3ccc(Cl)cc3Cl)cc2)c(O)c1Br [TCMDC-137533],69.44,92.36,"IC50 [1]: 165 nM; IC50 [2, 4]: 203 nM"
CCN1CCN(CCCNc2c3ccc(Cl)cc3nc3ccc(OC)cc23)CC1.Cl [TCMDC-137586],79.33,90.04,
CC=Cc1cc(Cc2c[nH]c(=N)[nH]c2=N)cc(CCC)c1OC [TCMDC-137634],54.07,40.96,
Cl.N=C(N)NN=Cc1cc2ccccc2c2ccccc12 [TCMDC-137671],63.22,44.77,
CCCCCc1cnc2nc(N)nc(N)c2c1C.Cl [TCMDC-137717],60.03,27.06,
CC(CO)(CO)NCc1cc2ccc3ccsc3c2c2ccccc12.CS(=O)(=O)O [TCMDC-137753],48.80,68.87,
CC(C)(C)c1ccc(Cc2cccc3nc(N)nc(N)c23)cc1 [TCMDC-137821],61.67,24.79,
CC(C)n1ncc2c3c(N)nc(N)nc3ccc21 [TCMDC-137866],87.47,39.71,
Cl.N=C(N)NN=Cc1c2ccccc2c(Cl)c2c(Cl)cccc12 [TCMDC-137898],66.37,24.36,
Cc1nc(N)nc(N)c1CCCOc1ccccc1Cl [TCMDC-137929],38.99,55.23,
CCCc1cc2c3c(N)nc(N)nc3ccc2n1CC [TCMDC-137946],61.03,76.85,
CCCC(CC)n1ccc2c3c(N)nc(N)nc3ccc21.CS(=O)(=O)O (stereo not drawn) [TCMDC-137948],49.24,73.56,
Cc1cc2c3c(N)nc(N)nc3ccc2n1C [TCMDC-137957],66.89,77.62,
Cl.Nc1nc(N)c2c(ccc3nn(Cc4cccnc4)cc32)n1 [TCMDC-137968],30.53,62.42,
COc1ccc(O)c(Cc2cnc3nc(N)nc(N)c3c2C)c1.O=C(O)C(F)(F)F [TCMDC-137998],11.48,55.44,
COc1ccc2nc3cc(Cl)ccc3c(Nc3ccc(C(=O)O)cc3)c2c1.Cl [TCMDC-138029],92.30,90.70,
C=CCc1cc(Cc2cnc(N)nc2N)cc(CCC)c1OC [TCMDC-138039],8.79,53.34,
CCOC(=O)c1cc2c(CCN3C(=O)c4ccccc4C3=O)cn(C)c2cc1-c1ccncc1 [TCMDC-138099],54.94,51.34,
CCC[C@@H]([C@@H](CC1CCCCC1)C(=O)N[C@H](C(=O)Nc1nccs1)C(C)(C)SC)N(O)C=O [TCMDC-138113],7.94,61.12,

Structure (SMILES),"% inhibition, Replicate A [2] [%]","% inhibition, Replicate B [2] [%]",also measured
COc1cc(Cc2cnc(N)nc2N)ccc1OCc1ccc(-c2csnn2)cc1 [TCMDC-138683],55.66,28.96,
COc1cc(-c2cnc(N)c(-c3nc4ccccc4[nH]3)c2)cc(OC)c1OC.Cl [TCMDC-138793],57.35,34.54,
COc1ccc2c(=O)c(-c3ccc(OC(F)(F)F)cc3)c(C)[nH]c2c1 [TCMDC-138811],34.78,69.73,
COc1ccc2nccc(C(=O)NC3CCC(CCN4CCc5cc(C#N)ccc5C4)CC3)c2c1.Cl (stereo not drawn) [TCMDC-139240],53.92,18.69,
Cc1cc(-c2ccc(NC(=O)Nc3ccc4nccc(N5CCN(C)CC5)c4c3)cc2C)cc(C)n1.Cl [TCMDC-139355],53.36,17.60,
CC(=O)c1c[nH]c2ccc(/C=C/C(=O)NC3CCC(CCN4CCc5ccc(C#N)cc5CC4)CC3)cc12.Cl (stereo not drawn) [TCMDC-139781],63.32,35.61,
O=c1cc(NCCCN(Cc2cc3c(Cl)cc(Cl)cc3[nH]2)Cc2cc3c(Cl)cc(Cl)cc3[nH]2)[nH]c2ccccc12 [TCMDC-139849],64.98,20.87,
O=C(NCCCN1CCN(c2cccc(Cl)c2)CC1)c1ccc(-c2nc3cc(Cl)c(Cl)cc3[nH]2)cc1 [TCMDC-140077],61.66,14.32,
CN(C)CCCOc1ccccc1CN1CC[C@H](NC(=O)c2ccc(Cl)c(Cl)c2)C1.O=C(O)C(F)(F)F [TCMDC-140310],-10.45,74.47,
COc1cc(NCCCNC(=O)c2cc3c(Cl)cc(Cl)cc3[nH]2)nc2ccccc12 [TCMDC-140360],57.79,39.97,
Cc1cc(CNCCCCCCNCc2ccc(Cl)cc2)ccc1O [TCMDC-140414],6.85,50.55,
COc1ccc2nccc(NC(=O)N3CCC(NCc4cc5ccccc5[nH]4)CC3)c2n1.O=C(O)C(=O)O [TCMDC-140671],55.02,18.69,
COc1ccc2nccc([C@@H](O)CN3CCC(NCc4cc5cccc6c5n(c4=O)CCC6)CC3)c2c1.O=C(O)C(=O)O [TCMDC-140735],13.85,52.08,"Is compound selective in assay? Pb ODA active? [2]: 0 (0: NO); IC50 [2, 3]: 3430 nM; IC50 [2, 4]: 3430 nM; IC50 (HepG2 cells): 16200 nM; Unified cytotox (HepG2 cells): 16.22 µM"
CC(C)(CN)c1nc(-c2ccc(Cl)c(O)c2)c(-c2ccnc(N)n2)[nH]1 [TCMDC-141019],10.20,56.84,"IC50 [1]: 863 nM; IC50 [2, 4]: 1720 nM"
Cc1c(CNCCCNc2cc(=O)c3ccccc3[nH]2)sc(-c2ccco2)c1Br.Cl [TCMDC-141065],4.54,52.38,
O=C(N[C@H]1CCN(CCc2ccc(O[C@H]3CCNC3)cc2)C1)c1ccc(Cl)c(Cl)c1.O=C(O)C(F)(F)F [TCMDC-141066],57.79,22.51,
COc1ccc2nccc([C@@H](O)CN3CCC(NC(=O)Cc4cccc5c(Br)cccc45)CC3)c2c1 [TCMDC-141111],36.89,51.52,
CCCCCCNC(=O)C1Cc2c([nH]c3ccc(Br)cc23)C2(CCN(CCc3ccccc3)CC2)N1 (stereo not drawn) [TCMDC-141182],15.53,59.10,
CCN(CC)CCN(Cc1ccc(-c2ccc(C(F)(F)F)cc2)cc1)C(=O)Cn1cc(CCCCc2cccc(F)c2F)c(=O)c2ccccc21.O=C(O)C(O)C(O)C(=O)O [TCMDC-141340],60.00,20.87,
CC(=O)Nc1cccc(CN(Cc2ccc(-c3ccc(CNCc4cccnc4)cn3)cc2)C(=O)Cc2cccnc2)c1.O=C(O)C(F)(F)F [TCMDC-141604],63.32,20.87,
C=Cc1cc(OC)c2c(c1)c(=O)oc1c2cc(OC)c2c(O)ccc([C@H]3O[C@H]([C@H](C)O)[C@H](O)[C@H]3O)c21 [TCMDC-141972],89.48,109.41,
O=[N+]([O-])c1ccccc1C=NN=c1c2c([nH]c3ccccc13)CCCC2 [TCMDC-142202],51.15,30.70,
CCN(CC)CCCC(C)Nc1c(-c2ccc(C)cc2)cnc2ccccc12 (stereo not drawn) [TCMDC-142264],53.92,8.32,
